Patent publication US10800816B2 (Baxalta GmbH, priority 2012, dated 2020)

system: not listed separately; experiment: Pharmacokinetics in C57Bl6 mice; assay type: in vivo, mouse; settings: 1 mg/kg peptide content, intravenous, 1 mg/kg

Molecule	HL_λ_z [h] (intravenous)
Ac-FQSKpNVHVDGYFERL-Aib-AKLC(PEG)-NH2 [JBT2325] (FQSKPNVHVDGYFERLXAKLC; acetyl, D-Pro, Aib, Cys-PEG 5.3 kD, amide; MOD_RES (1)..(1): N-terminal acetylation; MOD_RES (5)..(5): D-Pro; MOD_RES (17)..(17): Xaa is 2-amino-isobutyric acid; MOD_RES (21)..(21): Cys-PEG; MOD_RES (21)..(21): C-terminal amidation) [PEG 5.3 kD, linear maleimide PEG]	0.16
Ac-FQSKpNVHVDGYFERL-Aib-AKLC(PEG)-NH2 [JBT2326] (FQSKPNVHVDGYFERLXAKLC; acetyl, D-Pro, Aib, Cys-PEG 12.1 kD, amide; MOD_RES (1)..(1): N-terminal acetylation; MOD_RES (5)..(5): D-Pro; MOD_RES (17)..(17): Xaa is 2-amino-isobutyric acid; MOD_RES (21)..(21): Cys-PEG; MOD_RES (21)..(21): C-terminal amidation)	0.35
Ac-FQSKpNVHVDGYFERL-Aib-AKLC(PEG)-NH2 [JBT2327] (FQSKPNVHVDGYFERLXAKLC; acetyl, D-Pro, Aib, Cys-PEG 21.0 kD, amide; MOD_RES (1)..(1): N-terminal acetylation; MOD_RES (5)..(5): D-Pro; MOD_RES (17)..(17): Xaa is 2-amino-isobutyric acid; MOD_RES (21)..(21): Cys-PEG; MOD_RES (21)..(21): C-terminal amidation) [PEG 21.0 kD, linear maleimide PEG]	4.2
Ac-FQSKpNVHVDGYFERL-Aib-AKLC(PEG)-NH2 [JBT2328] (FQSKPNVHVDGYFERLXAKLC; acetyl, D-Pro, Aib, Cys-PEG 29.1 kD, amide; MOD_RES (1)..(1): N-terminal acetylation; MOD_RES (5)..(5): D-Pro; MOD_RES (17)..(17): Xaa is 2-amino-isobutyric acid; MOD_RES (21)..(21): Cys-PEG; MOD_RES (21)..(21): C-terminal amidation) [PEG 29.1 kD, linear maleimide PEG]	10.1

same assay, conditions: 1 mg/kg peptide content, s.c. AUC vs i.v. AUC, 1 mg/kg

Molecule	Bioavailability [%] (s.c.)
Ac-FQSKpNVHVDGYFERL-Aib-AKLC(PEG)-NH2 [JBT2325] (FQSKPNVHVDGYFERLXAKLC; acetyl, D-Pro, Aib, Cys-PEG 5.3 kD, amide; MOD_RES (1)..(1): N-terminal acetylation; MOD_RES (5)..(5): D-Pro; MOD_RES (17)..(17): Xaa is 2-amino-isobutyric acid; MOD_RES (21)..(21): Cys-PEG; MOD_RES (21)..(21): C-terminal amidation) [PEG 5.3 kD, linear maleimide PEG]	58.2
Ac-FQSKpNVHVDGYFERL-Aib-AKLC(PEG)-NH2 [JBT2326] (FQSKPNVHVDGYFERLXAKLC; acetyl, D-Pro, Aib, Cys-PEG 12.1 kD, amide; MOD_RES (1)..(1): N-terminal acetylation; MOD_RES (5)..(5): D-Pro; MOD_RES (17)..(17): Xaa is 2-amino-isobutyric acid; MOD_RES (21)..(21): Cys-PEG; MOD_RES (21)..(21): C-terminal amidation)	76.0
Ac-FQSKpNVHVDGYFERL-Aib-AKLC(PEG)-NH2 [JBT2327] (FQSKPNVHVDGYFERLXAKLC; acetyl, D-Pro, Aib, Cys-PEG 21.0 kD, amide; MOD_RES (1)..(1): N-terminal acetylation; MOD_RES (5)..(5): D-Pro; MOD_RES (17)..(17): Xaa is 2-amino-isobutyric acid; MOD_RES (21)..(21): Cys-PEG; MOD_RES (21)..(21): C-terminal amidation) [PEG 21.0 kD, linear maleimide PEG]	89.7
Ac-FQSKpNVHVDGYFERL-Aib-AKLC(PEG)-NH2 [JBT2328] (FQSKPNVHVDGYFERLXAKLC; acetyl, D-Pro, Aib, Cys-PEG 29.1 kD, amide; MOD_RES (1)..(1): N-terminal acetylation; MOD_RES (5)..(5): D-Pro; MOD_RES (17)..(17): Xaa is 2-amino-isobutyric acid; MOD_RES (21)..(21): Cys-PEG; MOD_RES (21)..(21): C-terminal amidation) [PEG 29.1 kD, linear maleimide PEG]	52.0

system: not listed separately; experiment: FIGURE 78P; settings: not given

Molecule	24 h Human Plasma Stability | Mean Remaining [%]	24 h Mouse Plasma Stability | Mean Remaining [%]
CC(C)C[C@@H]1NC(=O)[C@H](CCCCN)NC(=O)[C@H](C)NC(=O)C(C)(C)NC(=O)[C@H](CC(C)C)NC(=O)[C@H](CCCNC(=N)N)NC(=O)[C@H](CCC(=O)O)NC(=O)[C@H](Cc2ccccc2)NC(=O)[C@H](Cc2ccc(O)cc2)NC(=O)CNC(=O)[C@H](CC(=O)O)NC(=O)[C@H](C(C)C)NC(=O)[C@H](Cc2c[nH]cn2)NC(=O)[C@H](C(C)C)NC(=O)[C@H](CC(N)=O)NC(=O)[C@H]2CCCN2C(=O)[C@H](CCCCN)NC(=O)[C@H](CO)NC(=O)[C@H](CCC(N)=O)NC(=O)[C@H](Cc2ccccc2)NC(=O)CCOCCOCCOCCOCCOCCNC1=O [JBT00002405]	55.90	
CC(C)C[C@@H]1NC(=O)[C@H](CCCCN)NC(=O)[C@H](C)NC(=O)C(C)(C)NC(=O)[C@H](CC(C)C)NC(=O)[C@H](CCCNC(=N)N)NC(=O)[C@H](CCC(=O)O)NC(=O)[C@H](Cc2ccccc2)NC(=O)[C@H](Cc2ccc(O)cc2)NC(=O)CNC(=O)[C@H](CC(=O)O)NC(=O)[C@H](C(C)C)NC(=O)[C@H](Cc2c[nH]cn2)NC(=O)[C@H](C(C)C)NC(=O)[C@H](CC(N)=O)NC(=O)[C@H]2CCCN2C(=O)[C@H](CCCCN)NC(=O)[C@H](CO)NC(=O)[C@H](CCC(N)=O)NC(=O)[C@H](Cc2ccccc2)NC(=O)CCOCCOCCOCCOCCNC1=O [JBT00002406]	62.80	38.10
CC(C)C[C@@H]1NC(=O)[C@H](CCCCN)NC(=O)[C@H](C)NC(=O)C(C)(C)NC(=O)[C@H](CC(C)C)NC(=O)[C@H](CCCNC(=N)N)NC(=O)[C@H](CCC(=O)O)NC(=O)[C@H](Cc2ccccc2)NC(=O)[C@H](Cc2ccc(O)cc2)NC(=O)CNC(=O)[C@H](CC(=O)O)NC(=O)[C@H](C(C)C)NC(=O)[C@H](Cc2c[nH]cn2)NC(=O)[C@H](C(C)C)NC(=O)[C@H](CC(N)=O)NC(=O)[C@H]2CCCN2C(=O)[C@H](CCCCN)NC(=O)[C@H](CO)NC(=O)[C@H](CCC(N)=O)NC(=O)[C@H](Cc2ccccc2)NC(=O)CCOCCOCCOCCNC1=O [JBT00002407]	45.20	
CC(C)C[C@@H]1NC(=O)[C@H](CCCCN)NC(=O)[C@H](C)NC(=O)C(C)(C)NC(=O)[C@H](CC(C)C)NC(=O)[C@H](CCCNC(=N)N)NC(=O)[C@H](CCC(=O)O)NC(=O)[C@H](Cc2ccccc2)NC(=O)[C@H](Cc2ccc(O)cc2)NC(=O)CNC(=O)[C@H](CC(=O)O)NC(=O)[C@H](C(C)C)NC(=O)[C@H](Cc2c[nH]cn2)NC(=O)[C@H](C(C)C)NC(=O)[C@H](CC(N)=O)NC(=O)[C@H]2CCCN2C(=O)[C@H](CCCCN)NC(=O)[C@H](CO)NC(=O)[C@H](CCC(N)=O)NC(=O)[C@H](Cc2ccccc2)NC(=O)COCCOCCNC1=O [JBT00002408]	61.60	39.40
Ac-FQSKpNVHVDGYF-C(ME-400MA)-RL-Aib-AKL-NH2 [JBT00002404]		93.20
Ac-FQSKpNVHVDGYFERL-Aib-AKLK(Ttds-Maleimid-HSA)- NH2 [JBT00002410]		79.15

system: TFPI; experiment: IC50 ELISA | Mean IC50 [nM]; settings: not given
Source text: Table printed on a drawing sheet, FIGURE 78Z
Head of the field: IC50 ELISA | Mean IC50 [nM]
First copying reader's note: Continued table: the first body row (45.67) belongs to a compound on the preceding sheet, the last row probably continues on the next sheet, and cells with several values list single replicates.

Molecule	IC50 [nM]
(Hex-FQSKp-Cys(Acm)-VH-Tle-DaYFERL-Aib-AKLC- NH2)2-M2TriO [JBT00002533]	3.1
Hex-FQSKp-Cys(Acm)-VH-Tle-DaYFERL-Aib-AK-OH [JBT00002543]	71.1
Hex-FQSKp-Cys(Acm)-VH-Tle-DaYFERL-Aib-AKL-Ttds- K(Ttds-Myr)--NH2 [JBT00002539]	10.1
Hex-FQSKp-Cys(Acm)-VH-Tle-DaYFERL-Aib-AKLC(ME- 400MA)-NH2 [JBT00002534]	15.3
Hex-FQSKp-Cys(Acm)-VH-Tle-DaYFERL-Aib-AKLK(Ttds- Ac)--NH2 [JBT00002540]	3.99
Hex-FQSKp-Cys(Acm)-VH-Tle-DaYFERL-Aib-AKLK(Ttds- gGlu-Myr)--NH2 [JBT00002541]	24.3

system: not listed separately; experiment: FIGURE 78O; settings: not given

Molecule	24 h Human Plasma Stability | Mean Remaining [%]	24 h Mouse Plasma Stability | Mean Remaining [%]
CCN1C(=O)CC(SC[C@H](NC(=O)[C@H]2CCCN2C(=O)[C@H](CCCCN)NC(=O)[C@H](CO)NC(=O)[C@H](CCC(N)=O)NC(=O)[C@H](Cc2ccccc2)NC(C)=O)C(=O)N[C@H](C(=O)N[C@@H](Cc2c[nH]cn2)C(=O)N[C@H](C(=O)N[C@@H](CC(=O)O)C(=O)NCC(=O)N[C@@H](Cc2ccc(O)cc2)C(=O)N[C@@H](Cc2ccccc2)C(=O)N[C@@H](CCC(=O)O)C(=O)N[C@@H](CCCNC(=N)N)C(=O)N[C@@H](CC(C)C)C(=O)NC(C)(C)C(=O)N[C@@H](C)C(=O)N[C@@H](CCCCN)C(=O)N[C@@H](CC(C)C)C(N)=O)C(C)C)C(C)C)C1=O (stereo partly shown) [JBT00002397]	10.60	
CCN1C(=O)CC(SC[C@H](NC(=O)[C@@H](NC(=O)[C@H](Cc2c[nH]cn2)NC(=O)[C@@H](NC(=O)[C@H](CC(N)=O)NC(=O)[C@H]2CCCN2C(=O)[C@H](CCCCN)NC(=O)[C@H](CO)NC(=O)[C@H](CCC(N)=O)NC(=O)[C@H](Cc2ccccc2)NC(C)=O)C(C)C)C(C)C)C(=O)NCC(=O)N[C@@H](Cc2ccc(O)cc2)C(=O)N[C@@H](Cc2ccccc2)C(=O)N[C@@H](CCC(=O)O)C(=O)N[C@@H](CCCNC(=N)N)C(=O)N[C@@H](CC(C)C)C(=O)NC(C)(C)C(=O)N[C@@H](C)C(=O)N[C@@H](CCCCN)C(=O)N[C@@H](CC(C)C)C(N)=O)C1=O (stereo partly shown) [JBT00002398, Ac-FQSKpNVHV-C(NEM)-GYFERL-Aib-AKL-NH2]	39.05	21.60
CCN1C(=O)CC(SC[C@H](NC(=O)[C@H](Cc2ccccc2)NC(=O)[C@H](Cc2ccc(O)cc2)NC(=O)CNC(=O)[C@H](CC(=O)O)NC(=O)[C@@H](NC(=O)[C@H](Cc2c[nH]cn2)NC(=O)[C@@H](NC(=O)[C@H](CC(N)=O)NC(=O)[C@H]2CCCN2C(=O)[C@H](CCCCN)NC(=O)[C@H](CO)NC(=O)[C@H](CCC(N)=O)NC(=O)[C@H](Cc2ccccc2)NC(C)=O)C(C)C)C(C)C)C(=O)N[C@@H](CCCNC(=N)N)C(=O)N[C@@H](CC(C)C)C(=O)NC(C)(C)C(=O)N[C@@H](C)C(=O)N[C@@H](CCCCN)C(=O)N[C@@H](CC(C)C)C(N)=O)C1=O (stereo partly shown) [JBT00002399]	10.70	
CCSC1CC(=O)N(CCC(=O)NCCCOCCOCCOCCCNC(=O)CCC(=O)NCCCC[C@H](NC(=O)[C@H](CC(C)C)NC(=O)[C@H](CCCCN)NC(=O)[C@H](C)NC(=O)C(C)(C)NC(=O)[C@H](CC(C)C)NC(=O)[C@H](CCCNC(=N)N)NC(=O)[C@H](CCC(=O)O)NC(=O)[C@H](Cc2ccccc2)NC(=O)[C@H](Cc2ccc(O)cc2)NC(=O)CNC(=O)[C@H](CC(=O)O)NC(=O)[C@@H](NC(=O)[C@H](Cc2c[nH]cn2)NC(=O)[C@@H](NC(=O)[C@H](CC(N)=O)NC(=O)[C@H]2CCCN2C(=O)[C@H](CCCCN)NC(=O)[C@H](CO)NC(=O)[C@H](CCC(N)=O)NC(=O)[C@H](Cc2ccccc2)NC(C)=O)C(C)C)C(C)C)C(N)=O)C1=O (stereo partly shown) [JBT00002400]	60.00	
Ac-FQSKp-C(ME-400MA)-VHVDGYFERL-Aib-AKL-NH2 [JBT00002402]	75.30	99.70
Ac-FQSKpNVHV-C(ME-400MA)-GYFERL-Aib-AKL-NH2 [JBT00002403]	96.70	92.50
